The values below come from patent publication US9598424B2 (Takeda Pharmaceutical Company Limited, priority 2014, dated 2017).

The target of one experiment is T1, Full length human TBK1 (Homo sapiens, UniProt Q9UHD2).
T1 construct: Full length human TBK1 with an N-terminal His-tag; His-tag (N); made in house; host or cells: Sf9 insect cells (baculovirus, pFastBac1)
T1 sequence (Q9UHD2 1-729): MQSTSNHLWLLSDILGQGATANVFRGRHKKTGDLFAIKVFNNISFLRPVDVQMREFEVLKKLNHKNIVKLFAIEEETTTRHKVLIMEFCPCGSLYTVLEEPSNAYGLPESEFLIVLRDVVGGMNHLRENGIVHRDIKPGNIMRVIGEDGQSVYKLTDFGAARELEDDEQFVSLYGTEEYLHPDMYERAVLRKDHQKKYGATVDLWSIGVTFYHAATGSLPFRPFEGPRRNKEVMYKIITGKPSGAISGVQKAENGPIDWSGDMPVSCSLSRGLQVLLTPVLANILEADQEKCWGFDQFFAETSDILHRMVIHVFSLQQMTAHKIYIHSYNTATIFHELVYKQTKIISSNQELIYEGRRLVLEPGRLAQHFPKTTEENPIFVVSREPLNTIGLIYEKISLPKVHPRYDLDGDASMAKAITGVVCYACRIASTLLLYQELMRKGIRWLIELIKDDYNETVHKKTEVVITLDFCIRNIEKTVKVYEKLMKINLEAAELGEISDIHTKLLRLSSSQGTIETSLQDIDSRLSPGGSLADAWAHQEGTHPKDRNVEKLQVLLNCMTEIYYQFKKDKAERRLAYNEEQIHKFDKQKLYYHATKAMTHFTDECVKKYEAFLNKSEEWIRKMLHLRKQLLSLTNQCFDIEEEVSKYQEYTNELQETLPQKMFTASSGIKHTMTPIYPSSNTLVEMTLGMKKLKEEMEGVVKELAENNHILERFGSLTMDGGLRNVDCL
The experiment is described as follows: Inhibition of TBK1 Enzyme (Caliper microfluidic assay). Format: biochemical. To be noted: 25 μM ATP, 60 min at RT; -log(IC50), IC50 molar; read-out: TBK1 Inhibition (pIC50) (converted). Summed up: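 Enzyme: His-tagged full-length TBK1 expressed in Sf9. Reaction 60 min at RT in 20 mM Hepes pH 7.4, 10 mM MgCl2, 1 mM EDTA, 0.01% Brij-L23, 1 mM DTT, with 5FAM-peptide (added at 1 μM) and TBK1/ATP mix (added at 3 nM/25 μM), then EDTA-quenched. Conversion measured by microfluidic separation; 11-point 2.5-fold series fit to pIC50.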

The target in another experiment is T2, TBK1 (Homo sapiens, UniProt Q9UHD2).
T2 construct: host or cells: RA1-ISRE beta-lactamase reporter cells
T2 sequence (Q9UHD2 1-729): T1 sequence (Q9UHD2 1-729)
The experiment is described as follows: Inhibition of TBK1 in Cells (TLR3 driven ISRE β-lactamase reporter assay). Format: cell-based. The note with it: poly IC-LMW stimulation 16 hrs; -log(EC50), EC50 molar; read-out: Inhibition of TBK1 in cells pEC50 (EC) (converted). The procedure, abridged: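 RA1-ISRE β-lactamase reporter cells (50,000/well) treated with 11-point 2.5-fold compound dilutions and stimulated with 0.15 mg/ml poly IC-LMW for 16 hrs. Reporter read by CCF4-AM FRET; EC50 from non-linear fit of percent inhibition, reported as pEC50 (molar).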
In general terms: In a reporter assay the amount or activity of a reporter protein is the signal.

Take `COCCN(CC(F)(F)F)C(=O)c1cc(-c2ccc3nc(NC(=O)C4CC4)cn3c2)cs1` [Example 83, 4-(2-(cyclopropanecarboxamido)imidazo[1,2-a]pyridin-6-yl)-N-(2-methoxyethyl)-N-(2,2,2-trifluoroethyl)thiophene-2-carboxamide]: at Full length human TBK1, the IC50 is 20 nM. At TBK1, the EC50 was 646 nM.
For the compound `O=C(Nc1cn2cc(-c3csc(C(=O)N4CC(F)(F)C4)c3)ccc2n1)C1CC1` [Example 77, N-(6-(5-(3,3-difluoroazetidine-1-carbonyl)thiophen-3-yl)imidazo[1,2-a]pyridin-2-yl)cyclopropanecarboxamide], at Full length human TBK1, the IC50 was 63.1 nM. For the same compound, on TBK1, the EC50 was 1660 nM.
As for `O=C(NCC(F)F)c1cc(-c2ccc3nc(NC(=O)C4CC4)cn3c2)cs1` [Example 55, 4-(2-(cyclopropanecarboxamido)imidazo[1,2-a]pyridin-6-yl)-N-(2,2-difluoroethyl)thiophene-2-carboxamide], the IC50 at Full length human TBK1 was 6.31 nM. At TBK1, the EC50 was 275 nM.
`O=C(Nc1cn2cc(-c3cc(C(=O)N4CCC[C@@H]4C(F)(F)F)n[nH]3)ccc2n1)C1CC1` [Example 52, (R)-N-(6-(3-(2-(trifluoromethyl)pyrrolidine-1-carbonyl)-1H-pyrazol-5-yl)imidazo[1,2-a]pyridin-2-yl)cyclopropanecarboxamide]: at Full length human TBK1, the IC50 was 6.31 nM. In addition, the EC50 at TBK1 was 148 nM.
As to `O=C(NC1COCC1O)c1nc(-c2ccc3nc(NC(=O)C4CC4)cn3c2)cs1` (stereo not drawn) [Example 109, 4-(2-(cyclopropanecarboxamido)imidazo[1,2-a]pyridin-6-yl)-N-(4-hydroxytetrahydrofuran-3-yl)thiazole-2-carboxamide], on Full length human TBK1, the IC50 was 63.1 nM. The EC50 at TBK1 is 3240 nM.
Take `O=C(NC1CCCC1=O)c1nc(-c2ccc3nc(NC(=O)C4CC4)cn3c2)cs1` (stereo not drawn) [Example 91, 4-(2-(cyclopropanecarboxamido)imidazo[1,2-a]pyridin-6-yl)-N-(2-oxocyclopentyl)thiazole-2-carboxamide]: the IC50 on Full length human TBK1 was 200 nM. Moreover, the EC50 on TBK1 is 5130 nM.
Take `O=C(NCC(F)(F)F)c1ccn(-c2ccc3nc(NC(=O)C4CC4)cn3n2)n1` [Example 39, 1-(2-(cyclopropanecarboxamido)imidazo[1,2-b]pyridazin-6-yl)-N-(2,2,2-trifluoroethyl)-1H-pyrazole-3-carboxamide]: the IC50 at Full length human TBK1 is 251 nM. Further, the EC50 on TBK1 was greater than 50100 nM.
As to `O=C(NC1COCC1O)c1cc(-c2ccc3nc(NC(=O)C4CC4)cn3c2)cs1` (stereo not drawn) [Example 84, 4-(2-(cyclopropanecarboxamido)imidazo[1,2-a]pyridin-6-yl)-N-(4-hydroxytetrahydrofuran-3-yl)thiophene-2-carboxamide], the IC50 at Full length human TBK1 is 31.6 nM. For the same compound, the EC50 at TBK1 was 2820 nM.
Turning to `O=C(NCC(F)(F)F)c1ncc(-c2ccc3nc(NC(=O)C4CC4)cn3c2)[nH]1` [Example 50, 4-(2-(cyclopropanecarboxamido)imidazo[1,2-a]pyridin-6-yl)-N-(2,2,2-trifluoroethyl)-1H-imidazole-2-carboxamide], the IC50 on Full length human TBK1 was 12.6 nM. In addition, the EC50 at TBK1 was 479 nM.
Take `O=C(Nc1cn2cc(-c3csc(C(=O)N4CCC[C@H]4C(F)(F)F)c3)ccc2n1)C1CC1` [Example 61, (S)-N-(6-(5-(2-(trifluoromethyl)pyrrolidine-1-carbonyl)thiophen-3-yl)imidazo[1,2-a]pyridin-2-yl)cyclopropanecarboxamide]: at Full length human TBK1, the IC50 was 39.8 nM. Also, the EC50 on TBK1 was 2630 nM.
On the same counts, the results for `O=C(NCC(F)F)c1cc(-c2ccc3nc(NC(=O)C4CC4)cn3c2)n[nH]1` [Example 27, 5-(2-(cyclopropanecarboxamido)imidazo[1,2-a]pyridin-6-yl)-N-(2,2-difluoroethyl)-1H-pyrazole-3-carboxamide] are 31.6 nM and 3720 nM.
For `O=C(NCC(F)(F)F)c1cc(-c2ccc3nc(NC(=O)C4CC4)cn3n2)cs1` [Example 44, 4-(2-(cyclopropanecarboxamido)imidazo[1,2-b]pyridazin-6-yl)-N-(2,2,2-trifluoroethyl)thiophene-2-carboxamide], the IC50 on Full length human TBK1 was 3.98 nM. Moreover, on TBK1, the EC50 was 214 nM.
As to `COCCNC(=O)c1cc(-c2ccc3nc(NC(=O)C4CC4)cn3c2)cs1` [Example 73, 4-(2-(cyclopropanecarboxamido)imidazo[1,2-a]pyridin-6-yl)-N-(2-methoxyethyl)thiophene-2-carboxamide], on Full length human TBK1, the IC50 was 63.1 nM. Besides, the EC50 at TBK1 is 1660 nM.
Consider `CC(C)(NC(=O)c1cc(-c2ccc3nc(NC(=O)C4CC4)cn3c2)cs1)C(F)(F)F` [Example 56, 4-(2-(cyclopropanecarboxamido)imidazo[1,2-a]pyridin-6-yl)-N-(1,1,1-trifluoro-2-methylpropan-2-yl)thiophene-2-carboxamide], for which the IC50 on Full length human TBK1 was 25.1 nM. Also, on TBK1, the EC50 was 631 nM.
On the same counts, the results for `CC(F)(F)CNC(=O)c1cn(-c2ccc3nc(NC(=O)C4CC4)cn3c2)cn1` [Example 42, 1-(2-(cyclopropanecarboxamido)imidazo[1,2-a]pyridin-6-yl)-N-(2,2-difluoropropyl)-1H-imidazole-4-carboxamide] are 100 nM and 5130 nM.
`O=C(NCC(F)F)c1cc(-c2cn3cc(NC(=O)C4CC4)nc3cn2)cs1` [Example 19, 4-(2-(cyclopropanecarboxamido)imidazo[1,2-a]pyrazin-6-yl)-N-(2,2-difluoroethyl)thiophene-2-carboxamide]: the IC50 at Full length human TBK1 was 5.01 nM. In addition, on TBK1, the EC50 is 407 nM.
Regarding `O=C(NCCC(F)(F)F)c1cc(-c2ccc3nc(NC(=O)C4CC4)cn3c2)cs1` [Example 78, 4-(2-(cyclopropanecarboxamido)imidazo[1,2-a]pyridin-6-yl)-N-(3,3,3-trifluoropropyl)thiophene-2-carboxamide], on Full length human TBK1, the IC50 is 10 nM. For the same compound, the EC50 at TBK1 was 479 nM.
As for `O=C(NC1CCCC1(F)F)c1nc(-c2ccc3nc(NC(=O)C4CC4)cn3c2)cs1` (stereo not drawn) [Example 90, 4-(2-(cyclopropanecarboxamido)imidazo[1,2-a]pyridin-6-yl)-N-(2,2-difluorocyclopentyl)thiazole-2-carboxamide], the IC50 on Full length human TBK1 was 39.8 nM. In addition, on TBK1, the EC50 is 1020 nM.
With `N#CCC(=O)Nc1cn2cc(-c3csc(C(=O)NCC(F)(F)F)c3)ccc2n1` [Example 17, 4-(2-(2-cyanoacetamido)imidazo[1,2-a]pyridin-6-yl)-N-(2,2,2-trifluoroethyl)thiophene-2-carboxamide], the IC50 on Full length human TBK1 was 79.4 nM. Also, the EC50 at TBK1 was 2950 nM.
`O=C(Nc1cn2cc(-c3csc(C(=O)N4CC(CO)C4)n3)ccc2n1)C1CC1` [Example 124, N-(6-(2-(3-(hydroxymethyl)azetidine-1-carbonyl)thiazol-4-yl)imidazo[1,2-a]pyridin-2-yl)cyclopropanecarboxamide]: the IC50 at Full length human TBK1 was 251 nM. Further, the EC50 at TBK1 was 2140 nM.
On the same counts, the results for `O=C(NCC(F)F)c1nc(-c2ccc3nc(NC(=O)C4CC4)cn3c2)c[nH]1` [Example 12, 4-{2-cyclopropaneamidoimidazo[1,2-a]pyridin-6-yl}-N-(2,2-difluoroethyl)-1H-imidazole-2-carboxamide] are 20 nM and 955 nM.
